From patent US20230128688A1, “DIRECTED CONJUGATION TECHNOLOGIES” (KLEO PHARMACEUTICALS, INC., priority 2019, published 2023) come the findings set out here.

The subject of this test is daratumumab. Nature of the test: Absorbance based DAR analysis of FITC conjugation to antibody. It counts as biochemical. The protocol: In some embodiments, reaction partners, e.g., compounds of formula R-I or salts thereof ere dissolved in DMSO to 5 mM stock solution.
In some embodiments, reactions are set up with 300 micrograms of antibody. In some embodiments, various conditions, including various buffers, reagent equivalents, reaction time, reaction temperature and reaction concentrations can be utilized.
As an example, one reaction is 300 microliter reaction with 1 mg/mL of antibody in PBS. Peptide I-45 (1 microliter of 5 mM stock in DMSO, 2.5 molar equivalents relative to daratumumab) was diluted in 284 microliters of PBS buffer (10 mM phosphate, 150 mM sodium chloride, pH 7.4), then 15 microliters of daratumumab (20 mg/mL stock) was added to the reaction mixture followed by incubation at room temperature in the dark. After 4 h reaction buffer was exchanged using Amicon Ultra centrifuge filter (30 KDa MWCO, 0.5 mL volume). First, glycine buffer (100 mM, pH 2.1) was used for buffer exchange to ensure dissociation of target binding moieties after reaction. Then, phosphate buffer saline (pH 7.4) was used for further buffer exchange and storage.
In another example, a reaction is 300 microliter reaction with 1 mg/mL of antibody in borate buffer. Peptide I-44 (1.2 microliter of 5 mM stock in DMSO, 3.0 molar equivalents relative to daratumumab) was diluted in 284 microliters of Borate buffer (100 mM borate, pH 8.3), then 15 microliters of daratumumab (20 mg/mL stock) was added to the reaction mixture followed by incubation at room temperature in the dark. After 20 h reaction buffer was exchanged using Amicon Ultra centrifuge filter (30 KDa MWCO, 0.5 mL volume). First, glycine buffer (100 mM, pH 2.1) was used for buffer exchange to ensure dissociation of target binding moieties after reaction. Then, phosphate buffer saline (10 mM phosphate, 150 mM sodium chloride, pH 7.4) was used for further buffer exchange and storage.
In some embodiments, a useful technology is absorbance based DAR analysis. DAR (ratio of moieties of interest and target agent moieties (e.g., antibody agent moieties) was calculated for various antibody conjugates, e.g., in various reagent screening/assessment methods. Various agents comprising target binding moieties were assessed for conjugation efficiency as reaction partners with targets, e.g. protein agents such as antibody agents, compared to reagents with the same reactive groups but without target binding moieties. In various ratio determination ‘Drug’/moiety of interest is fluorescein isothiocyanate (FITC) dye conjugated to target agents, e.g., antibody agents. DAR molar ratio is defined as a ratio of moles of drug/moiety of interest to moles of target agent/antibody. Molarity is calculated from absorbance of FITC (A485) and antibody (A280) of conjugated product, and extinction coefficients of FITC and antibody using Beer-Lambert law. Correction coefficient 0.35 was used to correct for absorbance of FITC at 280 nm. Biotek Synergy H1 microplate reader and Take3 microvolume plate were used for absorbance measurements. Concentration of antibody was at least 3 mg/mL for optimal signal-to-noise in the readings. Certain target binding moieties that can provide higher DAR compared to equivalent controls (absence of target binding moieties) were selected as hits for further analysis. Certain assessment data were provided below as examples.

Where [1] appears, read: 10 M eq reagent, Bicarbonate buffer pH 8.3, 2 h, 37 C, Drug = FITC.
Where [2] appears, read: 2.5 M eq reagent, phosphate buffer saline pH 7.4, 4 h, 25 C, Drug = FITC.
Setting [3] is: 30 M eq reagent, borate buffer pH 8.3, 20 h, 37 C, Drug = FITC.
Setting [4] is: 5 M eq reagent, bicarbonate buffer pH 8.3, 20 h, 37 C, Drug = FITC.
The mark [5] stands for this setting: 10 M eq reagent, Bicarbonate buffer pH 8.3, 20 h, 25 C, Drug = FITC.
Setting [6] is: 5 M eq reagent, phosphate buffer saline pH 7.4, 4 h, 25 C, Drug = FITC.

Non-standard residues stand in square brackets, D forms with d. Residues, ends and D or L forms follow the SMILES beside them. *: point of attachment. FITC = O=C1OC2(c3ccc(O)cc3Oc3cc(O)ccc32)c2ccc(NC(=S)*)cc21; PEG8 = NCCOCCOCCOCCOCCOCCOCCOCCOCCC(=O)O; PEG6 = NCCOCCOCCOCCOCCOCCOCCC(=O)O; PEG2 = NCCOCCOCCC(=O)O; X7 = Fc1ccc(O*)cc1

`COc1ccc(NC(=O)c2cn3ccsc3n2)cc1C(=O)NCCCC(=O)NCc1cc(F)c(OC(=O)CCOCCOCCOCCOCCOCCOCCNC(=S)Nc2ccc3c(c2)C(=O)OC32c3ccc(O)cc3Oc3cc(O)ccc32)c(F)c1` [Compound I-1]: the DAR under setting [1] is 1.00. `CCCCNc1nc(NCCOCCOCCC(=O)NCc2cc(F)c(OC(=O)CCOCCOCCOCCOCCOCCOCCNC(=S)Nc3ccc4c(c3)C(=O)OC43c4ccc(O)cc4Oc4cc(O)ccc43)c(F)c2)nc(NCc2cccc(F)c2)n1` [Compound I-2]: the DAR under setting [1] is 1.76. Still for that read-out and setting: as for `Cc1nc2cc(C(=O)Nc3nc(-c4ccccn4)cs3)ccc2n1CCCC(=O)NCc1cc(F)c(OC(=O)CCOCCOCCOCCOCCOCCOCCNC(=S)Nc2ccc3c(c2)C(=O)OC32c3ccc(O)cc3Oc3cc(O)ccc32)c(F)c1` [Compound I-3], the figure is 1.39. `CC(=O)NCc1ccc(OC(=O)CCOCCOCCOCCOCCOCCOCCNC(=S)Nc2ccc3c(c2)C(=O)OC32c3ccc(O)cc3Oc3cc(O)ccc32)c(F)c1` [Compound I-10]: the DAR is, setting by setting: under setting [2], 0.08; (2.5 M eq, 25 C, 4 h, PBS pH 7.4) 0.08; (2.5 M eq, 25 C, 20 h, Borate pH 8.2) 0.21; (2.5 M eq, 25 C, 20 h, PBS pH 7.4) 0.07; (2.5 M eq, 25 C, 20 h, PBS pH 7.8) 0.15; (2.5 M eq, 25 C, 20 h, PBS pH 8.0) 0.06. Further, the DAR by setting is: (2.5 M eq, 25 C, 20 h, PBS pH 8.2) 0.03; (2.5 M eq, 30 C, 20 h, PBS pH 7.4) 0.05; (2.5 M eq, 37 C, 20 h, PBS pH 7.4) 0.17; under setting [1], 0.14; under setting [3], 0.98. For the compound `CC(=O)NCc1ccc(OC(=O)CCOCCOCCOCCOCCOCCOCCNC(=S)Nc2ccc3c(c2)C(=O)OC32c3ccc(O)cc3Oc3cc(O)ccc32)cc1` [Compound I-11], the DAR runs as follows: under setting [2], 0.05; under setting [1], 0.14; under setting [3], 0.14. Consider `Cc1nc2cc(C(=O)Nc3nc(-c4ccccn4)cs3)ccc2n1CCCC(=O)NCc1ccc(OC(=O)CCOCCOCCOCCOCCOCCOCCNC(=O)Nc2ccc3c(c2)C(=O)OC32c3ccc(O)cc3Oc3cc(O)ccc32)c(F)c1` [Compound I-12], for which the DAR under setting [4] is listed as 1.44. `Cc1nc2cc(C(=O)Nc3nc(-c4ccccn4)cs3)ccc2n1CCCC(=O)NCc1ccc(OC(=O)CCOCCOCCOCCOCCOCCOCCNC(=S)Nc2ccc3c(c2)C(=O)OC32c3ccc(O)cc3Oc3cc(O)ccc32)cc1` [Compound I-13]: the DAR under setting [4] came to 0.09. Take `CCCCNc1nc(NCCOCCOCCC(=O)NCc2ccc(OC(=O)CCOCCOCCOCCOCCOCCOCCNC(=S)Nc3ccc4c(c3)C(=O)OC43c4ccc(O)cc4Oc4cc(O)ccc43)c(F)c2)nc(NCc2cccc(F)c2)n1` [Compound I-14]: the DAR under setting [1] worked out at 0.29. With `CCCCNc1nc(NCCOCCOCCC(=O)NCc2ccc(OC(=O)CCOCCOCCOCCOCCOCCOCCNC(=S)Nc3ccc4c(c3)C(=O)OC43c4ccc(O)cc4Oc4cc(O)ccc43)cc2)nc(NCc2cccc(F)c2)n1` [Compound I-15], under setting [1], the DAR came to 0.74. As for `O=C(CCCc1c[nH]c2ccccc12)NCc1cc(F)c(OC(=O)CCOCCOCCOCCOCCOCCOCCNC(=S)Nc2ccc3c(c2)C(=O)OC32c3ccc(O)cc3Oc3cc(O)ccc32)c(F)c1` [Compound I-16], the DAR under setting [4] stood at 0.30.

For `O=C(CCCc1c[nH]c2ccccc12)NCc1ccc(OC(=O)CCOCCOCCOCCOCCOCCOCCNC(=S)Nc2ccc3c(c2)C(=O)OC32c3ccc(O)cc3Oc3cc(O)ccc32)c(F)c1` [Compound I-17], the DAR under setting [4] stood at 0.37.

With `CCNC(=O)c1ccc(OC(=O)CCOCCOCCOCCOCCOCCOCCNC(=S)Nc2ccc3c(c2)C(=O)OC32c3ccc(O)cc3Oc3cc(O)ccc32)cc1` [Compound I-19], under setting [2], the DAR was determined as 0.20. Take `COc1ccc(NC(=O)c2cn3ccsc3n2)cc1C(=O)NCCCC(=O)N[C@@H](CCC(=O)N(C)OC)C(=O)NCCOCCOCCOCCOCCOCCOCCOCCOCCN(CCCS(=O)(=O)O)C(=O)OC[C@H]1[C@@H]2CCc3c(nnn3CCOCCOCCOCCOCCNC(=S)Nc3ccc4c(c3)C(=O)OC43c4ccc(O)cc4Oc4cc(O)ccc43)CC[C@@H]21` [Compound I-20]: the DAR under setting [5] is given as 0.72. On the same count and under the same terms, with `N=C(N)NCCC[C@H](NC(=O)CCOCCOCCOCCOCCOCCOCCOCCOCCNC(=O)c1ccc(OC(=O)CCOCCOCCOCCOCCOCCOCCNC(=S)Nc2ccc3c(c2)C(=O)OC32c3ccc(O)cc3Oc3cc(O)ccc32)cc1)C(=O)N[C@@H](CCCNC(=N)N)C(=O)NCC(=O)N[C@@H](Cc1c[nH]c2ccccc12)C(=O)O` [Compound I-21] the figure was 0.18; with `N=C(N)NCCC[C@H](NC(=O)CCOCCOCCOCCOCCNC(=O)c1ccc(OC(=O)CCOCCOCCOCCOCCOCCOCCNC(=S)Nc2ccc3c(c2)C(=O)OC32c3ccc(O)cc3Oc3cc(O)ccc32)cc1)C(=O)N[C@@H](CCCNC(=N)N)C(=O)NCC(=O)N[C@@H](Cc1c[nH]c2ccccc12)C(=O)O` [Compound I-22], −0.18; with `N=C(N)NCCC[C@H](NC(=O)CCOCCOCCNC(=O)c1ccc(OC(=O)CCOCCOCCOCCOCCOCCOCCNC(=S)Nc2ccc3c(c2)C(=O)OC32c3ccc(O)cc3Oc3cc(O)ccc32)cc1)C(=O)N[C@@H](CCCNC(=N)N)C(=O)NCC(=O)N[C@@H](Cc1c[nH]c2ccccc12)C(=O)O` [Compound I-23], 0.14. `CC(=O)N[C@@H](CC(=O)O)C(=O)N[C@H]1CSSC[C@@H](C(=O)N[C@H](C(=O)O)[C@@H](C)O)NC(=O)[C@H](Cc2c[nH]c3ccccc23)NC(=O)[C@H](C(C)C)NC(=O)[C@H](CC(C)C)NC(=O)[C@H](CCC(=O)O)NC(=O)CNC(=O)[C@H](CCC(=O)Nc2cc(OC(=O)CCOCCOCCOCCOCCOCCOCCOCCOCCNC(=S)Nc3ccc4c(c3)C(=O)OC43c4ccc(O)cc4Oc4cc(O)ccc43)ccc2F)NC(=O)[C@H](Cc2c[nH]cn2)NC(=O)[C@H](Cc2c[nH]c3ccccc23)NC(=O)[C@H](C)NC1=O` [Compound I-24]: the DAR is listed as 0.05 under setting [6] and 0.83 under setting [3]. `CC(C)C[C@@H]1NC(=O)[C@H](Cc2cnc[nH]2)NC(=O)[C@H](Cc2c[nH]c3ccccc23)NC(=O)[C@H](C)NC(=O)[C@@H](NC(=O)[C@@H](N)CC(=O)O)CSSC[C@@H](C(=O)N[C@H](C(=O)O)[C@@H](C)O)NC(=O)[C@H](Cc2c[nH]c3ccccc23)NC(=O)[C@H](C(C)C)NC(=O)[C@H](CC(C)C)NC(=O)[C@H](CCC(=O)Nc2cc(OC(=O)CCOCCOCCOCCOCCOCCOCCOCCOCCNC(=S)Nc3ccc4c(c3)C(=O)OC43c4ccc(O)cc4Oc4cc(O)ccc43)ccc2F)NC(=O)CNC1=O` [Compound I-25]: the DAR reads like this: under setting [6], 0.10; under setting [3], 1.25. As for `N=C(N)NCCC[C@H](NC(=O)CCOCCOCCNC(=O)[C@@H](CCC(=O)Oc1ccc(F)cc1)NC(=O)CCOCCOCCOCCOCCOCCOCCNC(=S)Nc1ccc2c(c1)C(=O)OC21c2ccc(O)cc2Oc2cc(O)ccc21)C(=O)N[C@@H](CCCNC(=N)N)C(=O)NCC(=O)N[C@@H](Cc1c[nH]c2ccccc12)C(=O)O` [Compound I-26] ({FITC-PEG6}-[dE](X7)[PEG2]RRGW-OH), under setting [3], the DAR is −0.10.

Consider `N=C(N)NCCC[C@H](NC(=O)CCOCCOCCOCCOCCOCCOCCOCCOCCNC(=O)[C@H](CCC(=O)Oc1ccc(F)cc1)NC(=O)CCOCCOCCOCCOCCOCCOCCNC(=S)Nc1ccc2c(c1)C(=O)OC21c2ccc(O)cc2Oc2cc(O)ccc21)C(=O)N[C@@H](CCCNC(=N)N)C(=O)NCC(=O)N[C@@H](Cc1c[nH]c2ccccc12)C(=O)O` [Compound I-27] ({FITC-PEG6}-E(X7)[PEG8]RRGW-OH), for which, under setting [3], the DAR is −0.02.
